Experimental data: ChEMBL document CHEMBL3763039, “Development and Characterization of Potent Cyclic Acyldepsipeptide Analogues with Increased Antimicrobial Activity” (2016)
In brackets after ≈: the same amount, converted by molar mass. Where a SMILES comes first, the peptide text is derived from it. Bridges are numbered along the chain shown (N, C = ends). [ ]: non-standard residue; d: D form. The star is where a group is joined. Phe(F5) = N[C@@H](Cc1c(F)c(F)c(F)c(F)c1F)C(=O)O; Phe(3,5-F2) = N[C@@H](Cc1cc(F)cc(F)c1)C(=O)O; Pip(4S-Me) = C[C@H]1CCN[C@H](C(=O)O)C1; 2Nal = N[C@@H](Cc1ccc2ccccc2c1)C(=O)O; Pro(4R-Me) = C[C@H]1CN[C@H](C(=O)O)C1; Heptenoyl(2E) = CCCC/C=C/C(=O)*; aThr = C[C@H](O)[C@H](N)C(=O)O; Pip = O=C(O)[C@@H]1CCCCN1; X1 = CCC/C=C/C=C/C(=O)*; Abu = CC[C@H](N)C(=O)O

Experiments:
Format in all cases: functional
Enterococcus faecalis = assay: Antibacterial activity against vancomycin-resistant Enterococcus faecalis V583 incubated for 16 to 18 hrs by broth microdilution method
Escherichia coli [1] = assay: Antibacterial activity against Escherichia coli MC4100 incubated for 16 to 18 hrs by broth microdilution method
Streptococcus pneumoniae = assay: Antibacterial activity against Streptococcus pneumoniae D39 incubated for 16 to 18 hrs by broth microdilution method
Staphylococcus aureus [2] = assay: Antibacterial activity against Staphylococcus aureus ATCC 29213 incubated for 16 to 18 hrs by broth microdilution method
Pseudomonas aeruginosa = assay: Antibacterial activity against Pseudomonas aeruginosa PAO1 incubated for 16 to 18 hrs by broth microdilution method
Neisseria meningitidis [3] = assay: Antibacterial activity against Neisseria meningitidis H44/76 incubated for 16 to 18 hrs by broth microdilution method
Staphylococcus aureus [4] = assay: Antibacterial activity against methicillin-resistant Staphylococcus aureus 1784A incubated for 16 to 18 hrs by broth microdilution method
Listeria innocua = assay: Antibacterial activity against Listeria innocua incubated for 16 to 18 hrs by broth microdilution method
Staphylococcus aureus [5] = assay: Antibacterial activity against Staphylococcus aureus subsp. aureus Newman clinical isolate incubated for 16 to 18 hrs by broth microdilution method
Bacillus subtilis = assay: Antibacterial activity against Bacillus subtilis PY79 incubated for 16 to 18 hrs by broth microdilution method
Neisseria gonorrhoeae = assay: Antibacterial activity against chloramphenicol-resistant Neisseria gonorrhoeae N.279 incubated for 16 to 18 hrs by broth microdilution method
Escherichia coli [6] = assay: Antibacterial activity against Escherichia coli MC4100 expressing lptD-4213 incubated for 16 to 18 hrs by broth microdilution method
Neisseria meningitidis [7] = assay: Antibacterial activity against clpP deficient Neisseria meningitidis H44/76 incubated for 16 to 18 hrs by broth microdilution method

Row | Structure (SMILES) | MIC (Enterococcus faecalis) [µg/mL] | MIC (Escherichia coli [1]) [µg/mL] | MIC (Streptococcus pneumoniae) [µg/mL] | MIC (Staphylococcus aureus [2]) [µg/mL] | MIC (Pseudomonas aeruginosa) [µg/mL] | MIC (Neisseria meningitidis [3]) [µg/mL] | MIC (Staphylococcus aureus [4]) [µg/mL] | MIC (Listeria innocua) [µg/mL] | MIC (Staphylococcus aureus [5]) [µg/mL] | MIC (Bacillus subtilis) [µg/mL] | MIC (Neisseria gonorrhoeae) [µg/mL] | MIC (Escherichia coli [6]) [µg/mL] | MIC (Neisseria meningitidis [7]) [µg/mL]
1 | CCCC/C=C/C(=O)N[C@@H](Cc1cc(F)cc(F)c1)C(=O)N[C@H]1COC(=O)[C@@H]2C[C@@H](C)CN2C(=O)[C@H](CC)NC(=O)[C@@H]2CCCN2C(=O)[C@@H]2CCCN2C1=O ({Heptenoyl(2E)}-[Phe(3,5-F2)]SPP[Abu][Pro(4R-Me)]; ester 2-C) | 0.25 (≈ 0.324 µM) | > 128 | 0.5 (≈ 0.649 µM) | 2 (≈ 2.59 µM) | > 128 | 4 (≈ 5.19 µM) | 2 (≈ 2.59 µM) | ≤ 0.0625 | 2 (≈ 2.59 µM) | 0.125 (≈ 0.162 µM) | 4 (≈ 5.19 µM) | > 128 | 
2 | CCCC/C=C/C(=O)N[C@@H](Cc1ccc2ccccc2c1)C(=O)N[C@H]1COC(=O)[C@@H]2C[C@@H](C)CN2C(=O)[C@H](CC)NC(=O)[C@@H]2CCCCN2C(=O)[C@@H]2CCCN2C1=O ({Heptenoyl(2E)}-[2Nal]SP[Pip][Abu][Pro(4R-Me)]; ester 2-C) | 32 (≈ 40.1 µM) | > 128 | 2 (≈ 2.5 µM) | > 128 | > 128 | 32 (≈ 40.1 µM) | > 128 | 0.5 (≈ 0.626 µM) | > 128 | 128 (≈ 160 µM) | > 128 | > 128 | 
3 | CCCC/C=C/C(=O)N[C@@H](Cc1c(F)c(F)c(F)c(F)c1F)C(=O)N[C@H]1COC(=O)[C@@H]2C[C@@H](C)CN2C(=O)[C@H](CC)NC(=O)[C@@H]2CCCCN2C(=O)[C@@H]2CCCN2C1=O ({Heptenoyl(2E)}-[Phe(F5)]SP[Pip][Abu][Pro(4R-Me)]; ester 2-C) | 16 (≈ 19.1 µM) | > 128 | > 128 | > 128 | > 128 | 32 (≈ 38.1 µM) | > 128 | 4 (≈ 4.77 µM) | > 128 | 128 (≈ 153 µM) | 32 (≈ 38.1 µM) | > 128 | 
4 | C[C@@H]1C[C@H]2C(=O)O[C@@H](C)[C@H](NC(=O)[C@H](Cc3cc(F)cc(F)c3)NC(=O)/C=C/CC3CCCCC3)C(=O)N3CCC[C@H]3C(=O)N3CCCC[C@H]3C(=O)N[C@@H](C)C(=O)N2C1 | 0.0078 (≈ 0.00945 µM) | > 128 | 0.0625 (≈ 0.0758 µM) | 0.0078 (≈ 0.00945 µM) | > 128 | 0.0625 (≈ 0.0758 µM) | 0.125 (≈ 0.152 µM) | ≤ 0.0625 | 0.0625 (≈ 0.0758 µM) | ≤ 0.0625 | 0.125 (≈ 0.152 µM) | > 128 | > 128
5 | CN[C@@H](CC(C)C)C(=O)N[C@H]1C(=O)N[C@@H](CC(N)=O)C(=O)N[C@H]2C(=O)N[C@H]3C(=O)N[C@H](C(=O)N[C@@H](C(=O)O)c4cc(O)cc(O)c4-c4cc3ccc4O)[C@H](O)c3ccc(c(Cl)c3)Oc3cc2cc(c3O[C@H]2O[C@@H](CO)[C@H](O)[C@@H](O)[C@@H]2O[C@@H]2C[C@@](C)(N)[C@@H](O)[C@@H](C)O2)Oc2ccc(cc2Cl)[C@H]1O |  |  | 0.25 (≈ 0.173 µM) |  |  |  | 1.3 (≈ 0.897 µM) | 1 (≈ 0.69 µM) |  | 0.16 (≈ 0.11 µM) |  |  | 
6 | CCC/C=C/C=C/C(=O)N[C@@H](Cc1cc(F)cc(F)c1)C(=O)N[C@@H]1C(=O)N2CCC[C@H]2C(=O)N2CCCC[C@H]2C(=O)N[C@@H](C)C(=O)N2C[C@H](C)C[C@H]2C(=O)O[C@H]1C (X1-[Phe(3,5-F2)][aThr]P[Pip]A[Pro(4R-Me)]; ester 2-C) | 0.0039 (≈ 0.00489 µM) | > 128 | ≤ 0.0625 | 0.0019 (≈ 0.00238 µM) | > 128 | 0.0313 (≈ 0.0393 µM) | 0.125 (≈ 0.157 µM) | ≤ 0.0625 | 0.0625 (≈ 0.0784 µM) | ≤ 0.0625 | 0.0078 (≈ 0.00979 µM) | 4 (≈ 5.02 µM) | > 128
7 | CCCC/C=C/C(=O)N[C@@H](Cc1cc(F)cc(F)c1)C(=O)N[C@H]1COC(=O)[C@@H]2C[C@@H](C)CN2C(=O)[C@H](C)NC(=O)[C@@H]2C[C@@H](C)CCN2C(=O)[C@@H]2CCCN2C1=O ({Heptenoyl(2E)}-[Phe(3,5-F2)]SP[Pip(4S-Me)]A[Pro(4R-Me)]; ester 2-C) | 0.0156 (≈ 0.0199 µM) | > 128 | ≤ 0.0625 | 0.0156 (≈ 0.0199 µM) | > 128 | 0.125 (≈ 0.159 µM) | 4 (≈ 5.1 µM) | ≤ 0.0625 | 0.5 (≈ 0.637 µM) | ≤ 0.0625 | 0.0625 (≈ 0.0796 µM) | > 128 | 
8 | C[C@@H]1C[C@H]2C(=O)O[C@@H](C)[C@H](NC(=O)[C@H](Cc3cc(F)cc(F)c3)NC(=O)/C=C/CCCCC(=O)O)C(=O)N3CCC[C@H]3C(=O)N3CCCC[C@H]3C(=O)N[C@@H](C)C(=O)N2C1 | 8 (≈ 9.65 µM) | > 128 | 0.125 (≈ 0.151 µM) | 32 (≈ 38.6 µM) | > 128 | 4 (≈ 4.83 µM) | 64 (≈ 77.2 µM) | 0.5 (≈ 0.603 µM) | 64 (≈ 77.2 µM) | 16 (≈ 19.3 µM) | 1 (≈ 1.21 µM) | > 128 | 
